In patent publication EP4194453A1, “PYRAZINE COMPOUNDS FOR THE CONTROL OF INVERTEBRATE PESTS” (BASF SE, priority 2021, dated 2023):

Key:
Type in all cases: in vivo
[1] = test system: Diamond back moth (Plutella xylostella); assay: Diamond back moth leaf-dip test on cabbage leaves; conditions: 3rd instar larvae, 72 hours after treatment, in comparison with untreated controls
Procedure: The active compound was dissolved at the desired concentration in a mixture of 1:1 (vol:vol) distilled water: acetone. Surfactant (Kinetic HV) was added at a rate of 0.01% (vol/vol). The test solution was prepared on the day of use.
Leaves of cabbage were dipped in test solution and air-dried. Treated leaves were placed in petri dishes lined with moist filter paper and inoculated with ten 3rd instar larvae. Mortality was recorded 72 hours after treatment. Feeding damages were also recorded using a scale of 0-100%.

[2] = test system: Green Peach Aphid (Myzus persicae); assay: Green peach aphid systemic test, artificial diet in microtiter plates; conditions: 72 h, adult aphids, 3 days, in comparison with untreated controls
From the text: For evaluating control of green peach aphid (Myzus persicae) through systemic means the test unit consisted of 96-well-microtiter plates containing liquid artificial diet under an artificial mem brane.
The compounds were formulated using a solution containing 75% v/v water and 25% v/v DMSO. Different concentrations of formulated compounds were pipetted into the aphid diet, using a custom built pipetter, at two replications.
After application, 5-8 adult aphids were placed on the artificial membrane inside the microtiter plate wells. The aphids were then allowed to suck on the treated aphid diet and incubated at about 23 ± 1°C and about 50 ± 5 % relative humidity for 3 days. Aphid mortality and fecundity was then visually assessed.

[3] = test system: Boll weevil (Anthonomus grandis); assay: Boll weevil insect diet test in microtiter plates; conditions: 120 h, egg and larval mortality, 5 days, in comparison with untreated controls
Procedure: For evaluating control of boll weevil (Anthonomus grandis) the test unit consisted of 96-well-microtiter plates containing an insect diet and 5-10 A. grandis eggs.
The compounds were formulated using a solution containing 75% v/v water and 25% v/v DMSO. Different concentrations of formulated compounds were sprayed onto the insect diet at 5µl, using a custom-built micro atomizer, at two replications.
After application, microtiter plates were incubated at about 25 ± 1°C and about 75 ± 5 % relative humidity for 5 days. Egg and larval mortality was then visually assessed.

[4] = test system: Southern armyworm (Spodoptera eridania), 2nd instar larvae; assay: Southern armyworm foliar spray test on lima bean plants; conditions: 96 h, 4 days after treatment, in comparison with untreated controls
Procedure: The active compounds were formulated by a Tecan liquid handler in 100% cyclohexanone as a 10,000 ppm solution supplied in tubes. The 10,000 ppm solution was serially diluted in 100% cyclohexanone to make interim solutions. These served as stock solutions for which final dilutions were made by the Tecan in 50% acetone:50% water (v/v) into 10 or 20ml glass vials. A nonionic surfactant (Kinetic®) was included in the solution at a volume of 0.01% (v/v). The vials were then inserted into an automated electrostatic sprayer equipped with an atomizing nozzle for application to plants/insects. Lima bean plants (variety Sieva) were grown 2 plants to a pot and selected for treatment at the 1st true leaf stage. Test solutions were sprayed onto the foliage by an auto-mated electrostatic plant sprayer equipped with an atomizing spray nozzle. The plants were dried in the sprayer fume hood and then removed from the sprayer. Each pot was placed into perforated plastic bags with a zip closure. Ten to 11 armyworm larvae were placed into the bag and the bags zipped closed. Test plants were maintained in a growth room at about 25°C and about 20-40% relative humidity for 4 days, avoiding direct exposure to fluorescent light (14:10 light:dark photoperiod) to prevent trapping of heat inside the bags. Mortality and reduced feeding were assessed 4 days after treatment, compared to untreated control plants.

[5] = test system: Orchid thrips (Dichromothrips corbetti); assay: Orchid thrips floral-immersion test; conditions: adult thrips, 72 hours after treatment, in comparison with untreated controls
Procedure: Dichromothrips corbetti adults used for bioassay were obtained from a colony maintained continuously under laboratory conditions. For testing purposes, the test compound is diluted in a 1:1 mixture of acetone:water (vol:vol), plus Kinetic HV at a rate of 0.01% v/v.
Thrips potency of each compound was evaluated by using a floral-immersion technique. All petals of individual, intact orchid flowers were dipped into treatment solution and allowed to dry in Petri dishes. Treated petals were placed into individual re-sealable plastic along with about 20 adult thrips. All test arenas were held under continuous light and a temperature of about 28°C for duration of the assay. After 3 days, the numbers of live thrips were counted on each petal. The percent mortality was recorded 72 hours after treatment.

[6] = test system: Tobacco budworm (Heliothis virescens); assay: Tobacco budworm insect diet test in microtiter plates; conditions: 120 h, egg and larval mortality, 5 days, in comparison with untreated controls
Procedure: For evaluating control of tobacco budworm (Heliothis virescens) the test unit consisted of 96-well-microtiter plates containing an insect diet and 15-25 H. virescens eggs.
The compounds were formulated using a solution containing 75% v/v water and 25% v/v DMSO. Different concentrations of formulated compounds were sprayed onto the insect diet at 10 µl using a custom-built micro atomizer, at two replications.
After application, microtiter plates were incubated at about 28 ± 1°C and about 80 ± 5 % relative humidity for 5 days. Egg and larval mortality was then visually assessed.

Cc1nc(-c2nccnc2C(C)N(CC2CC2)C(=O)c2cc(C(F)(F)F)cc(C(F)(F)F)c2)no1 (stereo not drawn) [I-3, N-(cyclopropylmethyl)-N-[1-[3-(5-methyl-1,2,4-oxadiazol-3-yl)pyrazin-2-yl]ethyl]-3,5-bis(trifluoromethyl)benzamide]
≥ 75%: mortality at 300 ppm [1] | mortality at 2500 ppm [2] | mortality at 2500 ppm [3] | mortality at 300 ppm [4] | mortality at 300 ppm [5]

CCN(C)C(=O)c1nc(-c2nccnc2C(C)NC(=O)c2cc(C(F)(F)F)cc(C(F)(F)F)c2)no1 (stereo not drawn) [I-2, 3-[3-[1-[[3,5-bis(trifluoromethyl)benzoyl]amino]ethyl]pyrazin-2-yl]-N-ethyl-N-methyl-1,2,4-oxadiazole-5-carboxamide]
≥ 75%: mortality at 300 ppm [1] | mortality at 2500 ppm [6] | mortality at 2500 ppm [3]

CNC(=O)c1nc(-c2nccnc2C(C)N(CC2CC2)C(=O)c2cc(C(F)(F)F)cc(C(F)(F)F)c2)no1 (stereo not drawn) [I-4, 3-[3-[1-[[3,5-bis(trifluoromethyl)benzoyl]-(cyclopropylmethyl)amino]ethyl]pyrazin-2-yl]-N-methyl-1,2,4-oxadiazole-5-carboxamide]
≥ 75%: mortality at 2500 ppm [6] | mortality at 2500 ppm [3]

Cc1nc(-c2nccnc2C(C)NC(=O)c2cc(C(F)(F)F)cc(C(F)(F)F)c2)no1 (stereo not drawn) [I-1, N-[1-[3-(5-methyl-1,2,4-oxadiazol-3-yl)pyrazin-2-yl]ethyl]-3,5-bis(trifluoromethyl)benzamide]
≥ 75%: mortality at 300 ppm [1] | mortality at 2500 ppm [2] | mortality at 2500 ppm [6] | mortality at 2500 ppm [3] | mortality at 300 ppm [4]
